{"source": "patent US9301951B2", "about": "(Ardelyx, Inc., priority 2010, dated 2016)", "key": {"[1]": {"system": "5/6 nephrectomy (5/6Nx) rat model of CKD", "experiment": "In vivo evaluation in CKD rats (5/6 nephrectomy, 0.9% P diet, calcitriol)", "details": "study 1, drug in chow, 2 weeks", "quoted_text": "To assess the ability of selected example compounds to impact the progression of chronic kidney disease (CKD), 5/6 nephrectomy (5/6Nx) rat model of CKD was used. […] 5/6 Nx rats were obtained from Charles River Labs (CRL, Hollister, Calif.). Upon arrival, the surgeries and extent of kidney damage in the animals were assessed by measuring serum creatinine, P, Ca, and BUN. Based on this analysis, rats with inconsistent kidney function were removed from the study and the remainder of the cohort was divided in to evenly stratified test groups. The remaining animals were then placed on the same synthetic diet used in the drug-in-chow studies (Example 350), except the P levels were adjusted to 0.9% P. Drugs are blended into this chow to achieve the required dosing rate. At this time, rats were also started on an activated Vitamin D regimen in which they were injected intraperitoneally with calcitriol at 80 ng/kg three times a week. Once a week, serum was collected via retro orbital bleeding for analysis of serum P and creatinine utilizing an ACE ALERA blood chemistry analyzer. […] Unless otherwise indicated, the data shown is from the serum collected at 2 weeks after initiation of the treatment regimen. In addition, for study #3, during the third week of the study, the animals were placed in metabolic cages for two days, and urine collected for the final 24 hours."}, "[2]": {"experiment": "Stability of compounds in simulated gastric fluid (SGF)", "assay_type": "in vitro ADME", "details": "simulated gastric fluid (USP, 3 mg/mL pepsin), 1-20 μM, incubation time 6 hr, relative to t=0", "procedure": "Test compounds were incubated at 1-20 μM in simulated gastric fluid (SGF; standard USP solution with 3 mg/mL pepsin) or simulated intestinal fluid (SIF; standard USP solution with 3 mg/mL pancreatin) for 3 hr or 6 hr. HPLC-UV or HPLC-MS were used to determine test compound levels using peak area %. Results (Table 14) were reported as the percentage of test compound remaining after incubation in a given condition relative to test compound present at t=0 in the same condition."}}}
{"smiles": "CCN(CC)c1ccc(NC(=O)c2cccc(C(=O)N(C)CCN3CCOCC3)c2)c(-c2cc(C(=O)NCc3cccc(C(F)(F)F)c3)ccn2)c1", "note": "[Example 25, N1-(4-(Diethylamino)-2-(4-((3-(trifluoromethyl)benzyl)carbamoyl)pyridin-2-yl)phenyl)-N3-methyl-N3-(2-morpholinoethyl)isophthalamide]", "values": [{"measurement": "Ser CRE", "setting": "[1]", "value": 1.3, "unit": "mg/dL"}, {"measurement": "Ser P", "setting": "[1]", "value": 10, "unit": "mg/dL"}, {"measurement": "FGF23, pg/mL", "setting": "[1]; serum", "value": "~10,000 pg/mL"}, {"measurement": "% remaining, SGF", "setting": "[2]", "value": ">80", "unit": "%"}]}
